Reference: patent US20230064809A1, “SUBSTITUTED AMINOQUINOLONES AS DGKALPHA INHIBITORS FOR IMMUNE ACTIVATION” (Bayer Aktiengesellschaft, priority 2019, published 2023)

Target: T1, DGKα (Homo sapiens, UniProt P23743)
Assay: Human DGKα kinase activity inhibition assay (ADP-Glo)
Assay type: biochemical
Set-up: made in house; host or cells: Sf9 insect cells, baculovirus
Conditions: in vitro, C-terminally FLAG-tagged recombinant full-length human DGKα, 1,2-dioleoyl-sn-glycerol substrate, ADP-Glo readout
Protocol: Human DGKα Kinase Activity Inhibition Assay. Human DGKα inhibitory activity of compounds of the present invention was quantified employing the human DGKα kinase activity assay as described in the following paragraphs. In essence, the enzyme activity was measured by quantification of the adenosine-di-phosphate (ADP) generated as a co-product of the enzyme reaction via the “ADP-Glo™ Kinase Assay” kit from the company Promega. This detection system works as follows: In a first step the ATP not consumed in the kinase reaction is quantitatively converted to […] (“ADP-Glo-reagent”), then the adenylate cyclase is stopped and the ADP generated in the kinase reaction converted to ATP, which subsequently generates in a luciferase-based reaction a glow-luminescence signal (“Kinase Detection Reagent”). C-terminally FLAG-tagged, recombinant full-length human DGKα (expressed in baculovirus infected insect cells, purified using anti-Flag pulldown and size exclusion chromatography as described below, DGKa_hu_1) was used as enzyme. As substrate for the kinase 1,2-dioleoyl-sn-glycerol, reconstituted in octyl-β-D-glucopyranoside micelles, was used. For the preparation of the micelles, 1 volume of a 16.1 mM solution of 1,2-dioleoyl-sn-glycerol (Avanti, Cat. #08001-25G) in chloroform was slowly evaporated using a nitrogen stream. Subsequently, 22.55 volumes of a 510 mM solution of octyl-β-D-glucopyranoside (Sigma-Aldrich, Cat. #08001-10G) in 50 mM MOPS buffer (pH 7.4) were added, and the mixture was sonicated in an ultrasonic bath for 20 s. Then 35 volumes of 50 mM MOPS buffer (pH 7.4) were added to yield a solution of 0.28 mM 1,2 dioleoyl-sn-glycerol and 200 mM octyl-β-D-glucopyranoside, which was aliquoted, flash-frozen in liquid nitrogen, and stored at −20° C. until use. For each experiment, a fresh aliquot was quickly thawed and diluted 24-fold with aqueous assay buffer (described below) containing 95.7 μM adenosine triphosphate (Promega) to yield a 1.67-fold concentrated substrate solution. For the assay 50 nl of a 100-fold concentrated solution of the test compound in dimethyl sulfoxide (DMSO, Sigma) was pipetted into either a white 1536-well or a white low-volume 384-well microtiter plate (both Greiner Bio-One, Frickenhausen, Germany). […] The concentration of DGK a was adjusted depending of the activity of the enzyme lot and was chosen appropriate to have the assay in the linear range, a typical concentration is about 0.1 nM. The reaction was stopped by the addition of 2.5 μl of “ADP-Glo-reagent” (1 to 1.5 diluted with water) and the resulting mixture was incubated at 22° C. for 1 h to convert the ATP no t consumed in the kinase reaction completely to […]. […] The amount of emitted light was taken as a measure for the amount of ADP generated and thereby for the activity of the DGKα.
Target sequence in this assay (P23743 with tags, fused parts or gaps): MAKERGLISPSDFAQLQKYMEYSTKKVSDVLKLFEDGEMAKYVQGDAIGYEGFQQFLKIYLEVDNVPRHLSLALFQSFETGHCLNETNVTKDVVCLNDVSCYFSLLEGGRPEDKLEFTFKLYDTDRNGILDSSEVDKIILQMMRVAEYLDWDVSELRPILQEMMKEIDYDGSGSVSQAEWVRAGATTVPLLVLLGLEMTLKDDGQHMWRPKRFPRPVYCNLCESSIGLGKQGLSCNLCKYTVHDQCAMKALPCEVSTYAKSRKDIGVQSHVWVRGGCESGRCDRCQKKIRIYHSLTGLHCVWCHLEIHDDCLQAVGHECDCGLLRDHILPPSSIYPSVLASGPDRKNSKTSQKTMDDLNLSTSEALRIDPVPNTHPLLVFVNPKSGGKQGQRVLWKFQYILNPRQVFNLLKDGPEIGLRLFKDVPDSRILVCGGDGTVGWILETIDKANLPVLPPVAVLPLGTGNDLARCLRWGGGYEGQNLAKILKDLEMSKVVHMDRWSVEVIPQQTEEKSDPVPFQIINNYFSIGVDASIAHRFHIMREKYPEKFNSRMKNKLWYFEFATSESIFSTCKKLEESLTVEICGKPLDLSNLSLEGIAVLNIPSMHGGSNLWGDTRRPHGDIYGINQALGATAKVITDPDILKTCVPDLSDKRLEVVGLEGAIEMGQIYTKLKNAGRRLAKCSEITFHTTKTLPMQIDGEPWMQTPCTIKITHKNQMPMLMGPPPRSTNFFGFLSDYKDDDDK

IC50 [nM]	SMILES
1170	CN1CCN(c2ccc3c(N4CCC5(CCN(c6cccc(Cl)c6)C5)CC4)c(C#N)c(=O)n(C)c3c2)CC1 [Example 33, 4-[2-(3-chlorophenyl)-2,8-diazaspiro[4.5]decan-8-yl]-1-methyl-7-(4-methylpiperazin-1-yl)-2-oxo-1,2-dihydroquinoline-3-carbonitrile]
61	Cn1c(=O)c(C#N)c(N2CCC3(CCN(c4ccccc4OC(F)(F)F)C3)CC2)c2ccccc21 [Example 14, 1-methyl-2-oxo-4-{2-[2-(trifluoromethoxy)phenyl]-2,8-diazaspiro[4.5]decan-8-yl}-1,2-dihydroquinoline-3-carbonitrile]
19	Cn1c(=O)c(C#N)c(N2CC3(CCN(c4ccc(OC(F)(F)F)cc4)C3)C2)c2ccccc21 [Example 18, 1-methyl-2-oxo-4-{6-[4-(trifluoromethoxy)phenyl]-2,6-diazaspiro[3.4]octan-2-yl}-1,2-dihydroquinoline-3-carbonitrile]
532	Cn1c(=O)c(C#N)c(N2CCC3(CCN(c4ccc(F)cc4)C3)C2)c2ccccc21 (stereo not drawn) [Example 23, 4-[7-(4-fluorophenyl)-2,7-diazaspiro[4.4]nonan-2-yl]-1-methyl-2-oxo-1,2-dihydro-quinoline-3-carbonitrile]
155	COc1cccc(N2CC3(CCN(c4c(C#N)c(=O)n(C)c5ccccc45)C3)C2)c1 [Example 20, 4-[2-(3-methoxyphenyl)-2,6-diazaspiro[3.4]octan-6-yl]-1-methyl-2-oxo-1,2-dihydroquinoline-3-carbonitrile]

The next lines start with the compound.

SMILES	IC50 [nM]
CN(C)c1cccc(N2CCC3(CCN(c4c(C#N)c(=O)n(C)c5ccccc45)CC3)C2)c1 [Example 11, 4-{2-[3-(dimethylamino)phenyl]-2,8-diazaspiro[4.5]decan-8-yl}-1-methyl-2-oxo-1,2-dihydroquinoline-3-carbonitrile]	28
Cn1c(=O)c(C#N)c(N2CCC3(CCN(c4ccc(F)c(F)c4)C3)CC2)c2ccccc21 [Example 3, 4-[2-(3,4-difluorophenyl)-2,8-diazaspiro[4.5]decan-8-yl]-1-methyl-2-oxo-1,2-dihydro-quinoline-3-carbonitrile]	39
CN(C)c1ccccc1N1CCC2(CCN(c3c(C#N)c(=O)n(C)c4ccccc34)CC2)C1 [Example 13, 4-{2-[2-(dimethylamino)phenyl]-2,8-diazaspiro[4.5]decan-8-yl}-1-methyl-2-oxo-1,2-dihydroquinoline-3-carbonitrile]	51
COc1ccccc1N1CCC2(CCN(c3c(C#N)c(=O)n(C)c4ccccc34)CC2)C1 [Example 10, 4-[2-(2-methoxyphenyl)-2,8-diazaspiro[4.5]decan-8-yl]-1-methyl-2-oxo-1,2-dihydro-quinoline-3-carbonitrile]	18
Cn1c(=O)c(C#N)c(N2CCC3(CCN(c4ccccc4)C3)CC2)c2ccccc21 [Example 1, 1-methyl-2-oxo-4-(2-phenyl-2,8-diazaspiro[4.5]decan-8-yl)-1,2-dihydroquinoline-3-carbonitrile]	34

Target: T1, DGKα
Assay: not given
Conditions: literature report; cited from earlier work
Target sequence in this assay (P23743 whole entry, species assumed): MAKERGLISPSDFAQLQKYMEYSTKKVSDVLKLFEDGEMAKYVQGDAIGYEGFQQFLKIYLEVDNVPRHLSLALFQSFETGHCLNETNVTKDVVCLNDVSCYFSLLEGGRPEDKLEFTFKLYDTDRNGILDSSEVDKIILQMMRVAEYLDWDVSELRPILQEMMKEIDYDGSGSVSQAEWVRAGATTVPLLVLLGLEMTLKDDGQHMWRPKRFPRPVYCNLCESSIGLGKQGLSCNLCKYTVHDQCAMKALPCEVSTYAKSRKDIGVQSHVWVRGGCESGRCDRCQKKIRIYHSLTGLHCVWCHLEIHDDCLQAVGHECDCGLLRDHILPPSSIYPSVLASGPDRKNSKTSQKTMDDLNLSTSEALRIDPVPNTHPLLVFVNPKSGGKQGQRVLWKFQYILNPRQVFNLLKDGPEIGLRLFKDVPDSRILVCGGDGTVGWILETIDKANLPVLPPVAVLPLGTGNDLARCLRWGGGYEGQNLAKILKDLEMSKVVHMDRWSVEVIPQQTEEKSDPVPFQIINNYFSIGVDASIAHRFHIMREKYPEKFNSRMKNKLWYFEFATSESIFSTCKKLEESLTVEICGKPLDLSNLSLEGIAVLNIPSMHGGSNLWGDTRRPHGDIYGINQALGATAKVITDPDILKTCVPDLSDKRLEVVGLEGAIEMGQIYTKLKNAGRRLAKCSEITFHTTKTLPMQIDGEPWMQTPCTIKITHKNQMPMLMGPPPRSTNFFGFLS

SMILES	inhibitory activity on DGKα
Cc1ccc2c(C(=O)CN3CCN(C(=O)c4ccco4)CC3)c(C)[nH]c2c1 [AMB639752]	micromolar
O=C1/C(=C\C=C\c2ccco2)SC(=S)N1NS(=O)(=O)c1ccccc1 [CU-3]	sub-micromolar
